Laboratory results published in patent US9884063B2, “Amido-substituted azole compounds” (Bayer Pharma Aktiengesellschaft, priority 2014, dated 2018).

Target: T1, TNKS2 (Homo sapiens, UniProt Q9H2K2)
T1 sequence (Q9H2K2 1-1166): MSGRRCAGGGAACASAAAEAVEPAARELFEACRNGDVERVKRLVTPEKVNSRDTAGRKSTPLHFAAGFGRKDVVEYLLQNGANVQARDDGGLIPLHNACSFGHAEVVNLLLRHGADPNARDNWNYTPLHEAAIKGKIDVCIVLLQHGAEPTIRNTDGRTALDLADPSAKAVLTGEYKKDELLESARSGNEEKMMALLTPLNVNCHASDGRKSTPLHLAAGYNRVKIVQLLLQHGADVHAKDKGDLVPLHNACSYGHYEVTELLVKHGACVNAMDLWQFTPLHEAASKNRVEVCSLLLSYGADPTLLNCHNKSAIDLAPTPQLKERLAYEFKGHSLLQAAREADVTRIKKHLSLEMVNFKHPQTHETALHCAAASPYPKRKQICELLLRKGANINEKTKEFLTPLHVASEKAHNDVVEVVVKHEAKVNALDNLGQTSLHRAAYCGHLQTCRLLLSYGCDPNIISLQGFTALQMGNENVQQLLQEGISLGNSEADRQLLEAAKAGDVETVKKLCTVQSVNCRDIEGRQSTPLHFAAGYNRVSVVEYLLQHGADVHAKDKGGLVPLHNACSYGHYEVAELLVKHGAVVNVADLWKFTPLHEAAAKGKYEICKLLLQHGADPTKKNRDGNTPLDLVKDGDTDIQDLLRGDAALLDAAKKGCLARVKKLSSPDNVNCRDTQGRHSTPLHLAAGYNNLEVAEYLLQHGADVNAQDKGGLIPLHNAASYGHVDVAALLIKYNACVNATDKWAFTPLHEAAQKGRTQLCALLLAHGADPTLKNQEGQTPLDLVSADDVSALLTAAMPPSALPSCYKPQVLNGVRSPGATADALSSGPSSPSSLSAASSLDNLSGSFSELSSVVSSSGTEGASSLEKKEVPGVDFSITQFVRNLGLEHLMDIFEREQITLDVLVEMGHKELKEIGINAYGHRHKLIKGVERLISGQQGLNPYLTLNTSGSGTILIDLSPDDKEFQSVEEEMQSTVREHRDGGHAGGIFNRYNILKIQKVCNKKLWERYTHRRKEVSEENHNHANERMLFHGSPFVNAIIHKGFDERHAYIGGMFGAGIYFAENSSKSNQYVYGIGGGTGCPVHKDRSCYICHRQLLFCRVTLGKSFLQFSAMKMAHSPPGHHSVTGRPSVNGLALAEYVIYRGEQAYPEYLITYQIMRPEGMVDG
Test: Modified TNKS2 Assay 2 (auto-parsylation, [3H]-NAD+ SPA)
Type: biochemical
Details: 6 nM TNKS2, 96 well

Row | SMILES | IC50 [nM]
1 | COC(=O)c1nc[nH]c1C(=O)Nc1ccc(NC(=O)c2ccccc2Cl)c(C)c1 [Example 86, methyl-5-({4-[(2-chlorobenzoyl)amino]-3-methylphenyl}carbamoyl)-1H-imidazole-4-carboxylate] | 3400
2 | Cc1cc(NC(=O)c2[nH]cnc2C(=O)NCCN2CCCCC2)ccc1NC(=O)c1ccccc1Cl [Example 89, N^5-{4-[(2-chlorobenzoyl)amino]-3-methylphenyl}-N^4-[2-(piperidin-1-yl)ethyl]-1H-imidazole-4,5-dicarboxamide] | 50
3 | COC(=O)c1nc[nH]c1C(=O)Nc1ccc(NC(=O)c2ccc(F)cc2Cl)c(OC)c1 [Example 94, methyl 5-({4-[(2-chloro-4-fluorobenzoyl)amino]-3-methoxyphenyl}carbamoyl)-1H-imidazole-4-carboxylate] | 500
4 | CNC(=O)c1nc[nH]c1C(=O)Nc1ccc(NC(=O)c2ccc(F)cc2Cl)c(OC)c1 [Example 95, N^5-{4-[(2-chloro-4-fluorobenzoyl)amino]-3-methoxyphenyl}-N^4-methyl-1H-imidazole-4,5-dicarboxamide] | 470
5 | COc1cc(NC(=O)c2[nH]cnc2C(=O)NCCN(C)C)ccc1NC(=O)c1ccc(F)cc1Cl [Example 96, N^5-{4-[(2-chloro-4-fluorobenzoyl)amino]-3-methoxyphenyl}-N^4-[2-(dimethylamino)ethyl]-1H-imidazole-4,5-dicarboxamide] | 40
6 | COc1cc(NC(=O)c2[nH]cnc2C(=O)NCCN2CCCCC2)ccc1NC(=O)c1ccc(F)cc1Cl [Example 97, N^5-{4-[(2-chloro-4-fluorobenzoyl)amino]-3-methoxyphenyl}-N^4-[2-(piperidin-1-yl)ethyl]-1H-imidazole-4,5-dicarboxamide] | 5
7 | COC(=O)c1nc[nH]c1C(=O)Nc1ccc(NC(=O)c2ccccc2Cl)c(OC)c1 [Example 98, methyl 5-({4-[(2-chlorobenzoyl)amino]-3-methoxyphenyl}carbamoyl)-1H-imidazole-4-carboxylate] | 370
8 | COc1cc(NC(=O)c2[nH]cnc2C(=O)NCCN(C)C)ccc1NC(=O)c1ccccc1Cl [Example 100, N^5-{4-[(2-chlorobenzoyl)amino]-3-methoxyphenyl}-N^4-[2-(dimethylamino)ethyl]-1H-imidazole-4,5-dicarboxamide] | 160
9 | COC(=O)c1nc[nH]c1C(=O)Nc1ccc(NC(=O)c2ccc(F)cc2)c(OC)c1 [Example 102, methyl 5-({4-[(4-fluorobenzoyl)amino]-3-methoxyphenyl}carbamoyl)-1H-imidazole-4-carboxylate] | > 10000
10 | CNC(=O)c1[nH]c(C(C)C)nc1C(=O)Nc1ccc(NC(=O)c2ccc(F)cc2Cl)cc1 [Example 106, N^4-{4-[(2-chloro-4-fluorobenzoyl)amino]phenyl}-2-isopropyl-N^5-methyl-1H-imidazole-4,5-dicarboxamide] | > 10000
11 | CNC(=O)c1nc[nH]c1C(=O)Nc1ccc(NC(=O)c2ccccc2Cl)nc1 [Example 112, N^5-{6-[(2-chlorobenzoyl)amino]pyridin-3-yl}-N^4-methyl-1H-imidazole-4,5-dicarboxamide] | 370
12 | CN(C)CCNC(=O)c1nc[nH]c1C(=O)Nc1ccc(NC(=O)c2ccccc2Cl)nc1 [Example 113, N^5-{6-[(2-chlorobenzoyl)amino]pyridin-3-yl}-N^4-[2-(dimethylamino)ethyl]-1H-imidazole-4,5-dicarboxamide] | 40
